Data from patent publication US9486506B2 (Novo Nordisk A/S, priority 2011, dated 2016).
Numbered stars: 1 amine (or outer) side, 2 acyl side, 3 side chain; on linkers, the order of the positions; unused ones are H or OH. Side chains are listed from the residue outwards. Peptide text beside a SMILES is read from it. * marks the point of attachment. C16 diacid = O=C(O)CCCCCCCCCCCCCCC(=O)*; γGlu = O=C(O)[C@H](CCC(=O)[*:2])N[*:1]; AEEA = NCCOCCOCC(=O)O

Tests used:
[1] = biological target: T1, glucagon receptor (Homo sapiens, UniProt P47871); experiment: Assay (I) Glucagon activity (cAMP biosensor, FLIPR); format: cell-based
T1 construct: expressed in transfected cells

[2] = Assay (X) Chemical stability assessment by RP-UPLC; format: physicochemical; details: pH 8.15, 14 days at 37° C. vs 5° C., 333 μM

T1 sequence (P47871 26-477): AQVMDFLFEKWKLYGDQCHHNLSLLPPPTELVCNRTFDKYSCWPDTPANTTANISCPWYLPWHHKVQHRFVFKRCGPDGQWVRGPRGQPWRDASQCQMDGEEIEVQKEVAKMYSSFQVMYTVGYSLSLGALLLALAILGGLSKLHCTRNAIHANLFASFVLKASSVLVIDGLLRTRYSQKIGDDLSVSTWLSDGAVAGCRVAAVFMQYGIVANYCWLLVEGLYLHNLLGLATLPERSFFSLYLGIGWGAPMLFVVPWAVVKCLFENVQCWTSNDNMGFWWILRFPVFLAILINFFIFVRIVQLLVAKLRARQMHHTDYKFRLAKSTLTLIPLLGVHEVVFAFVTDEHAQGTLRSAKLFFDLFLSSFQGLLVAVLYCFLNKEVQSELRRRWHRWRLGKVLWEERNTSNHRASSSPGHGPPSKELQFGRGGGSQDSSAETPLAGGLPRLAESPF

| Compound | EC50 [1] [nM] | Chemical stability [Purity loss/14 days 37 C.] [2] [%] |
| --- | --- | --- |
| CC(C)C[C@H](NC(=O)[C@H](Cc1ccc(O)cc1)NC(=O)[C@H](CCCCN)NC(=O)[C@H](CO)NC(=O)[C@H](Cc1ccc(O)cc1)NC(=O)[C@H](CC(=O)O)NC(=O)[C@H](CO)NC(=O)[C@@H](NC(=O)[C@H](Cc1ccccc1)NC(=O)[C@@H](NC(=O)CNC(=O)[C@H](CCC(N)=O)NC(=O)[C@H](CO)NC(=O)[C@@H](N)Cc1c[nH]cn1)[C@@H](C)O)[C@@H](C)O)C(=O)N[C@@H](CCC(=O)O)C(=O)N[C@@H](CO)C(=O)N[C@@H](CCCNC(=N)N)C(=O)N[C@@H](CCCNC(=N)N)C(=O)N[C@@H](C)C(=O)N[C@@H](CCC(N)=O)C(=O)N[C@@H](CC(=O)O)C(=O)N[C@@H](Cc1ccccc1)C(=O)N[C@H](C(=O)N[C@@H](CCCCNC(=O)CC[C@H](NC(=O)CC[C@H](NC(=O)COCCOCCNC(=O)COCCOCCNC(=O)CC[C@H](NC(=O)CCCCCCCCCCCCCCC(=O)O)C(=O)O)C(=O)O)C(=O)O)C(=O)N[C@@H](Cc1c[nH]c2ccccc12)C(=O)N[C@@H](CC(C)C)C(=O)N[C@@H](CC(C)C)C(=O)N[C@@H](CO)C(=O)N[C@H](C(=O)O)[C@@H](C)O)C(C)C [Example 69, N^ε24-[(4S)-4-carboxy-4-[[(4S)-4-carboxy-4-[[2-[2-[2-[[2-[2-[2-[[(4S)-4-carboxy-4-(15-carboxypentadecanoylamino)butanoyl]amino]ethoxy]ethoxy]acetyl]amino]ethoxy]ethoxy]acetyl]amino]butanoyl]amino]butanoyl]-[Glu15,Lys24,Leu27,Ser28]-Glucagon] | 0.071 | 8.2 |
| CC(C)C[C@H](NC(=O)[C@H](Cc1ccc(O)cc1)NC(=O)[C@H](CCCNC(=N)N)NC(=O)[C@H](CO)NC(=O)[C@H](Cc1ccc(O)cc1)NC(=O)[C@H](CC(=O)O)NC(=O)[C@H](CO)NC(=O)[C@@H](NC(=O)[C@H](Cc1ccccc1)NC(=O)[C@@H](NC(=O)CNC(=O)[C@H](CCC(N)=O)NC(=O)[C@H](CO)NC(=O)[C@@H](N)Cc1c[nH]cn1)[C@@H](C)O)[C@@H](C)O)C(=O)N[C@@H](CCC(=O)O)C(=O)N[C@@H](CO)C(=O)N[C@@H](CCCNC(=N)N)C(=O)N[C@@H](CCCNC(=N)N)C(=O)N[C@@H](C)C(=O)N[C@@H](CCC(N)=O)C(=O)N[C@@H](CC(=O)O)C(=O)N[C@@H](Cc1ccccc1)C(=O)N[C@H](C(=O)N[C@@H](CCCCNC(=O)CC[C@H](NC(=O)CC[C@H](NC(=O)COCCOCCNC(=O)COCCOCCNC(=O)CC[C@H](NC(=O)CCCCCCCCCCCCCCC(=O)O)C(=O)O)C(=O)O)C(=O)O)C(=O)N[C@@H](Cc1c[nH]c2ccccc12)C(=O)N[C@@H](CC(C)C)C(=O)N[C@@H](CC(C)C)C(=O)N[C@@H](CO)C(=O)N[C@H](C(=O)O)[C@@H](C)O)C(C)C [Example 70, N^ε24-[(4S)-4-carboxy-4-[[(4S)-4-carboxy-4-[[2-[2-[2-[[2-[2-[2-[[(4S)-4-carboxy-4-(15-carboxypentadecanoylamino)butanoyl]amino]ethoxy]ethoxy]acetyl]amino]ethoxy]ethoxy]acetyl]amino]butanoyl]amino]butanoyl]-[Arg12,Glu15,Lys24,Leu27,Ser28]-Glucagon] (H-HSQGTFTSDYSRYLESRRAQDFVK([γGlu-γGlu-AEEA-AEEA-γGlu-C16 diacid])WLLST-OH) | 0.14 | 7.6 |
| CC(C)C[C@H](NC(=O)[C@H](Cc1ccc(O)cc1)NC(=O)[C@H](CCCNC(=N)N)NC(=O)[C@H](CO)NC(=O)[C@H](Cc1ccc(O)cc1)NC(=O)[C@H](CC(=O)O)NC(=O)[C@H](CO)NC(=O)[C@@H](NC(=O)[C@H](Cc1ccccc1)NC(=O)[C@@H](NC(=O)CNC(=O)[C@H](CCC(N)=O)NC(=O)[C@H](CO)NC(=O)[C@@H](N)Cc1c[nH]cn1)[C@@H](C)O)[C@@H](C)O)C(=O)N[C@@H](CC(=O)O)C(=O)N[C@@H](C)C(=O)N[C@@H](CCCNC(=N)N)C(=O)N[C@@H](CCCNC(=N)N)C(=O)N[C@@H](C)C(=O)N[C@@H](CCC(N)=O)C(=O)N[C@@H](CC(=O)O)C(=O)N[C@@H](Cc1ccccc1)C(=O)N[C@H](C(=O)N[C@@H](CCCCNC(=O)CC[C@H](NC(=O)CC[C@H](NC(=O)CC[C@H](NC(=O)CCCCCCCCCCCCCCC(=O)O)C(=O)O)C(=O)O)C(=O)O)C(=O)N[C@@H](Cc1c[nH]c2ccccc12)C(=O)N[C@@H](CC(C)C)C(=O)N[C@@H](CC(C)C)C(=O)N[C@@H](CO)C(=O)N[C@H](C(=O)O)[C@@H](C)O)C(C)C [Example 72, N^ε24-[(4S)-4-carboxy-4-[[(4S)-4-carboxy-4-[[(4S)-4-carboxy-4-(15-carboxypentadecanoylamino)butanoyl]amino]butanoyl]amino]butanoyl]-[Arg12,Ala16,Lys24,Leu27,Ser28]-Glucagon] (H-HSQGTFTSDYSRYLDARRAQDFVK([γGlu-γGlu-γGlu-C16 diacid])WLLST-OH) | 0.016 | 6.1 |
| CC[C@H](C)[C@H](NC(=O)[C@H](CC(=O)O)NC(=O)[C@H](CC(C)C)NC(=O)[C@H](Cc1ccc(O)cc1)NC(=O)[C@H](CCCCN)NC(=O)[C@H](CO)NC(=O)[C@H](Cc1ccc(O)cc1)NC(=O)[C@H](CC(=O)O)NC(=O)[C@H](CO)NC(=O)[C@@H](NC(=O)[C@H](Cc1ccccc1)NC(=O)[C@@H](NC(=O)CNC(=O)[C@H](CCC(N)=O)NC(=O)[C@H](CO)NC(=O)[C@@H](N)Cc1c[nH]cn1)[C@@H](C)O)[C@@H](C)O)C(=O)N[C@@H](CCCNC(=N)N)C(=O)N[C@@H](CCCNC(=N)N)C(=O)N[C@@H](C)C(=O)N[C@@H](CCC(N)=O)C(=O)N[C@@H](CC(=O)O)C(=O)N[C@@H](Cc1ccccc1)C(=O)N[C@H](C(=O)N[C@@H](CCCCNC(=O)CC[C@H](NC(=O)CC[C@H](NC(=O)CC[C@H](NC(=O)CC[C@H](NC(=O)CCCCCCCCCCCCCCCCC(=O)O)C(=O)O)C(=O)O)C(=O)O)C(=O)O)C(=O)N[C@@H](Cc1c[nH]c2ccccc12)C(=O)N[C@@H](CC(C)C)C(=O)N[C@@H](CC(C)C)C(=O)N[C@@H](CO)C(=O)N[C@H](C(N)=O)[C@@H](C)O)C(C)C [Example 75, N^ε24-[(4S)-4-carboxy-4-[[(4S)-4-carboxy-4-[[(4S)-4-carboxy-4-[[(4S)-4-carboxy-4-(17-carboxyheptadecanoylamino)butanoyl]amino]butanoyl]amino]butanoyl]amino]butanoyl]-[Ile16,Lys24,Leu27,Ser28]-Glucagon amide] | 0.402 | 3.6 |
| CC(C)C[C@H](NC(=O)[C@H](Cc1c[nH]c2ccccc12)NC(=O)[C@H](CCCCNC(=O)CC[C@H](NC(=O)CC[C@H](NC(=O)CC[C@H](NC(=O)CC[C@H](NC(=O)CCCCCCCCCCCCCCCCC(=O)O)C(=O)O)C(=O)O)C(=O)O)C(=O)O)NC(=O)[C@@H](NC(=O)[C@H](Cc1ccccc1)NC(=O)[C@H](CC(=O)O)NC(=O)[C@H](CCC(N)=O)NC(=O)[C@H](C)NC(=O)[C@H](CCCNC(=N)N)NC(=O)[C@H](CCCNC(=N)N)NC(=O)[C@@H](NC(=O)[C@H](CC(=O)O)NC(=O)[C@H](CC(C)C)NC(=O)[C@H](Cc1ccc(O)cc1)NC(=O)[C@H](CCCCN)NC(=O)[C@H](CO)NC(=O)[C@H](Cc1ccc(O)cc1)NC(=O)[C@H](CC(=O)O)NC(=O)[C@H](CO)NC(=O)[C@@H](NC(=O)[C@H](Cc1ccccc1)NC(=O)[C@@H](NC(=O)CNC(=O)[C@H](CCC(N)=O)NC(=O)[C@H](CO)NC(=O)[C@@H](N)Cc1c[nH]cn1)[C@@H](C)O)[C@@H](C)O)C(C)C)C(C)C)C(=O)N[C@@H](CC(C)C)C(=O)N[C@@H](CO)C(=O)N[C@H](C(N)=O)[C@@H](C)O [Example 76, N^ε24-[(4S)-4-carboxy-4-[[(4S)-4-carboxy-4-[[(4S)-4-carboxy-4-[[(4S)-4-carboxy-4-(17-carboxyheptadecanoylamino)butanoyl]amino]butanoyl]amino]butanoyl]amino]butanoyl]-[Val16,Lys24,Leu27,Ser28]-Glucagon amide] | 0.268 | 5.5 |
| CC(C)C[C@H](NC(=O)[C@H](CC(=O)O)NC(=O)[C@H](CC(C)C)NC(=O)[C@H](Cc1ccc(O)cc1)NC(=O)[C@H](CCCCN)NC(=O)[C@H](CO)NC(=O)[C@H](Cc1ccc(O)cc1)NC(=O)[C@H](CC(=O)O)NC(=O)[C@H](CO)NC(=O)[C@@H](NC(=O)[C@H](Cc1ccccc1)NC(=O)[C@@H](NC(=O)CNC(=O)[C@H](CCC(N)=O)NC(=O)[C@H](CO)NC(=O)[C@@H](N)Cc1c[nH]cn1)[C@@H](C)O)[C@@H](C)O)C(=O)N[C@@H](CCCNC(=N)N)C(=O)N[C@@H](CCCNC(=N)N)C(=O)N[C@@H](C)C(=O)N[C@@H](CCC(N)=O)C(=O)N[C@@H](CC(=O)O)C(=O)N[C@@H](Cc1ccccc1)C(=O)N[C@H](C(=O)N[C@@H](CCCCNC(=O)CC[C@H](NC(=O)CC[C@H](NC(=O)CC[C@H](NC(=O)CC[C@H](NC(=O)CCCCCCCCCCCCCCCCC(=O)O)C(=O)O)C(=O)O)C(=O)O)C(=O)O)C(=O)N[C@@H](Cc1c[nH]c2ccccc12)C(=O)N[C@@H](CC(C)C)C(=O)N[C@@H](CC(C)C)C(=O)N[C@@H](CO)C(=O)N[C@H](C(N)=O)[C@@H](C)O)C(C)C [Example 77, N^ε24-[(4S)-4-carboxy-4-[[(4S)-4-carboxy-4-[[(4S)-4-carboxy-4-[[(4S)-4-carboxy-4-(17-carboxyheptadecanoylamino)butanoyl]amino]butanoyl]amino]butanoyl]amino]butanoyl]-[Leu16,Lys24,Leu27,Ser28]-Glucagon amide] | 0.812 | 4.1 |
